Experimental findings from paper PMC7168207, “Dibasic Derivatives of Phenylcarbamic Acid as Prospective Antibacterial Agents Interacting with Cytoplasmic Membrane” (Antibiotics, 2020) are described below.

What all share (test): synergy with antibiotics (FIC index, checkerboard)
What all share (assay type): cell-based, Enterococcus faecalis

One test has as its system VRE 368. Particulars: Enterococcus, VRE, VRE 368; tested compound/antibiotic; read-out: MIC of each antibacterial drug alone observed in the synergy experiment. The text has this: (§1) Representatives from various classes were chosen in order to study the potential difference in synergistic activity according to the diverse mechanisms of action and resistance of these drugs. The method of minimal fractional inhibitory concentration (FIC) index (FICI) in a microtitration plate was used. FICI ≤ 0.5 means synergy; 0.5 < FICI < 1 means additivity; 1 ≤ FICI < 4 means indifference; and FICI ≥ 4 means antagonism.
(§2) For synergy effect study, a method of fractional inhibitory concentration was used. […] Raw H was used for the evaluation of MIC(A); column 12 was used for evaluation of MIC(B). The plate was inoculated by the bacterial suspension to reach final concentration of 5 × 10^5 CFU/mL in the wells. The fractional inhibitory concentration (FIC) index was calculated using the concentrations in the first nonturbid (clear) well found in each row and column along the turbidity/nonturbidity interface. To interpret the combined effect, the lowest FICI was used. A ΣFIC ≤ 0.5 means synergy; 0.5 < ΣFIC < 1 means additivity; 1 ≤ ΣFIC < 4 means indifference; and ΣFIC ≥ 4 means antagonism. The tests were made in duplicate, and the results were averaged.

The test system of a further test is VRE 342B. Particulars: VRE 342B.
From the text: as §1, §2

The next test concerns VRE 725B. Particulars: Enterococcus.
From the text: as §1
The used VRE strains were isolated from American crows by Oravcova et al., and their genetic profiles were characterized. All the VRE strains were carrying genes vanA, tetM, and ermB. Strains VRE 368 and VRE 725B carried gene aac, which provided acquired aminoglycoside resistance.
as §2

Molecules are shown by their SMILES.

`CNC(C)C1CCC(N)C(OC2C(N)CC(N)C(OC3OCC(C)(O)C(NC)C3O)C2O)O1` (stereo not shown) [GEN, gentamicin, reference compound]: the MIC was 64 µg/mL with VRE 368; 32 µg/mL in the test with VRE 342B (Enterococcus, tested compound/antibiotic, read-out: MIC of each antibacterial drug alone observed in the synergy experiment); > 2000 µg/mL in the test on VRE 725B. Besides, the “concentrations of the tested compound/clinically used antibiotic providing additivity or synergy” value in the test with VRE 342B (in the combination of that line) came out at 8 µg/mL.

Broadly, the MIC is the least concentration at which growth counts as inhibited.
